# Results: patent EP3925949A1, “AZIDO COMPOUNDS AND METHOD FOR MONITORING ACID CERAMIDASE ACTIVITY IN INTACT CELLS USING THEM” (Consejo Superior de Investigaciones Científicas (CSIC), priority 2020, dated 2021)
# How the values were obtained:
# [1] = target: T1, acid ceramidase (AC) (Homo sapiens, UniProt Q13510); assay: AC activity-dependence of labelling (fluorescence confocal microscopy); assay type: cell-based; parameters: expressed in transfected cells; host or cells: FD/AC (overexpressing AC); conditions: FD/AC cells, SOCLAC 5 µM 1 h pretreatment, RBM5-177 5 µM 4 h
# T1 sequence (Q13510 143-395 limits assumed): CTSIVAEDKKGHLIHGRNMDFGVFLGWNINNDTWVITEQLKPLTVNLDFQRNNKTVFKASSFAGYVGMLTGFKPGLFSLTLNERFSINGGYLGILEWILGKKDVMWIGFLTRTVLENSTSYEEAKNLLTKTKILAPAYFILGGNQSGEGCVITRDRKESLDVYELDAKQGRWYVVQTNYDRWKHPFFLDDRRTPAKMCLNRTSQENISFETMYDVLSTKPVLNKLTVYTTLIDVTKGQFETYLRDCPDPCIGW
# T1 sequence (Q13510 22-142 limits assumed): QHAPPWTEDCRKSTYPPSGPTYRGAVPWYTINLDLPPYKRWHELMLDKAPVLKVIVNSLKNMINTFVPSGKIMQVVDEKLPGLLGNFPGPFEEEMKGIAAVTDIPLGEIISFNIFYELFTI
# Description: Cells were seeded at 1 × 10^5 cells/mL on glass-bottom plates and allowed to adhere for 24 h. For golgi staining, cells were incubated with 40 µL/well of CellLight Golgi-RFP BacMam 2.0 for 24 h. […] After this time, the medium was replaced with fresh medium containing CO-1 (1 µM final concentration), and cells were incubated for 10 min. Then cells were washed 3 times with DMEM for 5 min at 37 °C, 75 nM LysoTracker Red DND-99 or 75 nM Mitotracker in phenol red-free DMEM was added to stain lysosomes or mitochondria, and cells were kept in the incubator for microscope analysis. Staining was viewed with a Zeiss LSM 880 confocal microscope or Leica TCS SP8-Hyvolution. Image analysis was performed using Fiji software.^[7] To measure the Manders's and Pearson's coefficients a threshold including organelles and discarding the background was set. Co-localization coefficients were measured using the JaCoP plugin (S. Bolte et al. J. Microsc. 2006, 224, 213-232) on the different stacks of images (at least n=4) with each stack containing 3-10 cells.
# [2] = target: T2, ACER2 (Homo sapiens, UniProt Q5QJU3); assay: Hydrolysis of RBM5-177 by microsomes of ACER2 overexpressing cells, UPLC-HRMS; assay type: biochemical; conditions: microsomes from ACER2 overexpressing cells, RBM5-177 5 µM, 30 min
# T2 construct: expressed in transfected cells; host or cells: HeLa T-Rex ACER2-TET-ON, tetracycline-induced; microsomes
# Description: (§1) Cell lysates obtained from HeLa T-Rex ACER1-TET-ON, HeLa T-Rex ACER2-TET-ON and MEF5 overexpressing ACER3 cells were transferred to ultracentrifuge tubes and were spun at 100000 g for 1 h at 4°C. Pellets were resuspended in a 0.25 M saccharose solution and protein concentration was determined as specified below.
# (§2) Cells were seeded at 5 × 10^5 cells/mL into 6 well plates (1 mL/well) and were allowed to adhere for 24 h. Medium was replaced with fresh medium containing RBM5-177, RBM5-019 or RBM2-37 (5 µM final concentration). After 30 min, medium was removed; cells were washed with 400 µL PBS and harvested with 400 µL Trypsin-EDTA and 600 µL of medium. NC recombinant enzyme, lysates from A375-AC overexpressing cells, MEF5 or microsomes from HeLa T-Rex ACER1-TET-ON and HeLa T-Rex […] activity buffer. Cell pellets were resuspended with 100 µL of H2O and mixed with 750 µL of methanol: chloroform, 2:1. Samples were heated at 48°C overnight and next day, 75 µL of 1 M KOH in methanol were added, followed by 2 h incubation at 37°C. Afterwards, the saponification was neutralised with 75 µL of 1 M acetic acid and solvent was removed using a Speed Vac Savant SPD131 DDA (Thermo Scientific). […]
# [3] = target: T3, ACER3 (Mus musculus, UniProt Q9D099); assay: Hydrolysis of RBM5-177 by microsomes of ACER3 overexpressing cells, UPLC-HRMS; assay type: biochemical; conditions: microsomes from ACER3 overexpressing cells, RBM5-177 5 µM, 30 min
# T3 construct: endogenous in cells; host or cells: MEF5 cells (NC-deficient)
# T3 sequence (Q9D099 1-267): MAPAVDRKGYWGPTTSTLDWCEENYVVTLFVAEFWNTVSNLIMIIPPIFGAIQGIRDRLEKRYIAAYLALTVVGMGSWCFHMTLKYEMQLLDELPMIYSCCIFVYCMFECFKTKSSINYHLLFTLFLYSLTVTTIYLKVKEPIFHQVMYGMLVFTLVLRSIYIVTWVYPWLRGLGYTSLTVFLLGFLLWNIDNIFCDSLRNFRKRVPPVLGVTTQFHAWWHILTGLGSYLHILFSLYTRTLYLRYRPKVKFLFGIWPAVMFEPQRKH
# Description: as §1, §2
Compound,effect on lysosome labelling by RBM5-177/CO-1 [1],RBM5-19 formation (hydrolysis as substrate) [2],RBM5-19 formation (hydrolysis as substrate) [3]
CCCCCCCCCCCCC/C=C/[C@@H](O)[C@H](CO)NC(=O)CCl [SOCLAC],no lysosomal labelling occurred,,
"CCCCCCCC(=O)N[C@@H](C)[C@H](O)CCCCCCCCCCCCN=[N+]=[N-] [RBM5-177, N-((2S,3R)-15-azido-3-hydroxypentadecan-2-yl)octanamide]",,transformed into the free amine only by AC,transformed into the free amine only by AC
